SMILES strings stand for the structures.

For one test, the system named is Akt phosphorylation. The experiment in a line: Akt Phosphorylation Assay (western blot), Panc-1. The format is cell-based, human. The settings on record: at 10 μM, * = activation. The procedure, abridged: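 Panc-1 (KRas G12D) cells were treated with compound at 10 μM final (0.3% DMSO) for 6 h at 37 °C, or with serial dilutions for IC50. Cells were either serum-starved overnight in 0.5% FBS and then stimulated with 1.5 ng/ml EGF for 15 min, or kept in 10% FBS without stimulation. Akt Ser473 phosphorylation in lysates was read by western blot.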

Another test deals with KRas wild type. Briefly: Ras GTP Binding Domain Inhibition Assay (Ras Superfamily Assay). The following applies: 20 μM compound; for KRas wild type + SOS: % inh.: with SOS; for KRas wild type: % inh.: without SOS. The procedure, abridged: (§1)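 Binding of 100 nM fluorescent GTP (Cy3 or Cy5, 45 min, room temperature) was read after washes from plate-captured His-tagged protein. Beforehand, compounds at 20 μM or in dilution series for IC50 sat 3 h on the protein in Tris buffer pH 7.4 or 7.0 with 1% DMSO, Sos GEF optionally added for the last hour.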

The subject of a further test is KRas G12D mutant. The description is as above. The following applies: 20 μM compound; for KRas G12D mutant + SOS: % inh.: with SOS; for KRas G12D mutant: % inh.: without SOS. Summed up:
as §1

Another test addresses T1, Rac-1 (Homo sapiens, UniProt P63000).
T1 construct: made in house
The test is described as above. The following applies: read-out: Rac-1: % inh. The procedure, abridged: as §1

The next test relates to IL6. Briefly: IL-6 Quantification Assay (ELISA), LPS-stimulated RAW 264.7. More on the design: inhibition: dose or concentration left out as unconfirmed. The settings on record: Mus musculus, RAW264.7; read-out: IL-6: % inh. The format is cell-based.

Regarding `CC(C)n1ccc(-c2cn3nc(-c4nccn4C)nc(O)c3c2-c2ccccc2)n1` [Compound 17, 6-(1-Isopropyl-1H-pyrazol-3-yl)-2-(1-methyl-1H-imidazol-2-yl)-5-phenylpyrrolo[2,1-f][1,2,4]triazin-4-ol], the “% inh of Akt phosphorylation in Panc-1” value with Akt phosphorylation is recorded as “D (85-100% inhibition)”. In the test on KRas wild type, the “KRas wild type + SOS: % inh.” value was “C (C = 50-75% inhibition)” and the “KRas wild type: % inh.” value is “C (C = 50-75% inhibition)”. In the test on KRas G12D mutant, the “KRas G12D mutant + SOS: % inh.” value is on record as “C (C = 50-75% inhibition)” and the “KRas G12D mutant: % inh.” value is “C (C = 50-75% inhibition)”. Also, the inhibition at 20 µM at Rac-1 is 50 to 75%. Moreover, the inhibition in the test on IL6 lay in the range of 50 to 74%.

Consider `COc1ncccc1Nc1nc(-c2nccn2C)nn2cc(-c3ccn(C(C)C)n3)c(C)c12` [Compound 85, 6-(1-Isopropyl-1H-pyrazol-3-yl)-N-(2-methoxypyridin-3-yl)-5-methyl-2-(1-methyl-1H-imidazol-2-yl)pyrrolo[2,1-f][1,2,4]triazin-4-amine], for which the “% inh of Akt phosphorylation in Panc-1” value with Akt phosphorylation is “D* (85-100% activation)”. In the test with KRas wild type, the “KRas wild type + SOS: % inh.” value is 0 (0 = 0% inhibition) and the “KRas wild type: % inh.” value is 0 (0 = 0% inhibition). In addition, in the test with KRas G12D mutant, the “KRas G12D mutant + SOS: % inh.” value is reported as “A (A = 1-25% inhibition)” and the “KRas G12D mutant: % inh.” value is given as 0 (0 = 0% inhibition). Further, at Rac-1, the inhibition at 20 µM was determined as 0%. In addition, the inhibition with IL6 lay within 75 to 100%.

With `COCC1CCN(c2nc(-c3nccn3C)nn3cc(-c4ccn(C(C)C)n4)c(-c4ccccc4)c23)C1.Cl` (racemic) [Compound 19, rac 6-(1-Isopropyl-1H-pyrazol-3-yl)-4-(3-(methoxymethyl)pyrrolidin-1-yl)-2-(1-methyl-1H-imidazol-2-yl)-5-phenylpyrrolo[2,1-f][1,2,4]triazine hydrochloride salt], the “% inh of Akt phosphorylation in Panc-1” value with Akt phosphorylation is recorded as “D* (85-100% activation)”. Further, in the test on KRas wild type, the “KRas wild type + SOS: % inh.” value is reported as “A (A = 1-25% inhibition)” and the “KRas wild type: % inh.” value was “A (A = 1-25% inhibition)”. In the test on KRas G12D mutant, the “KRas G12D mutant + SOS: % inh.” value is “A (A = 1-25% inhibition)” and the “KRas G12D mutant: % inh.” value was “B (B = 26-49% inhibition)”. Also, on Rac-1, the inhibition at 20 µM stood at 0%. For the same compound, the inhibition in the test with IL6 lay within 75 to 100%.

(Values after patent US12459951B2, “Compounds that interact with RAS superfamily proteins for treatment of cancers, inflammatory diseases, rasopathies, and fibrotic disease” (SHY Therapeutics, LLC, priority 2022, dated 2025).)
